This note sets out measurements from US5120830A, “Inhibitory peptides against α-2, β-1 mediated mg^++ dependent adhesion of platelets to collagen” (Washington University, priority 1990, dated 1992).

Where no end group is shown, it is not given here.

The assay addresses T1, α2 β1 integrin (Homo sapiens, UniProt P05556+P17301).
T1 construct: Mg^++ -dependent adhesion of platelets, which use the α2 β1 integrin as a collagen specific receptor; endogenous in cells; host or cells: washed 51Cr-labelled platelets
In words: Mg++-dependent adhesion of 51Cr-labeled platelets to type I collagen substrates, peptide inhibition. It is filed as cell-based. As for the experimental part: Platelet Adhesion-Platelets were washed and labeled with ^51 CrO4 as described in detail by Haverstick et al (22). Platelet adhesion to substrate composed of 0.5% BSA or 20 μg/ml of either type I collagen, laminin or fibronectin in polystryene dishes was determined as previously described in detail (7). Alternately, adhesion assays were carried out in 96 well microtiter dishes (Immulon II, Dynatech). In this case substrate coating- and adhesion assay volumes were adjusted to 100 μl and wash volumes were adjusted to 140 μl per well. Platelets were permitted to adhere for 60 min at a concentration of 1.3-- to 1.8×10^8 platelets/ml, then wash five times in adhesion assay buffer before being lysed with two […] aliquots of 2% SDS which were subsequently pooled and counted.
Peptide Inhibition--After labeling and washing, cells were resuspended at 2.6- to 3.6×10^5 /ml for platelets or 2×10^5 /ml for T47D cells. Aliquots were added to equal volumes of buffer containing appropriate concentrations of the peptides and divalent cations and preincubated for 15 min before being added to the adhesive substrates. Adhesion was quantitated as described above.

T1 sequence (P17301 30-1181): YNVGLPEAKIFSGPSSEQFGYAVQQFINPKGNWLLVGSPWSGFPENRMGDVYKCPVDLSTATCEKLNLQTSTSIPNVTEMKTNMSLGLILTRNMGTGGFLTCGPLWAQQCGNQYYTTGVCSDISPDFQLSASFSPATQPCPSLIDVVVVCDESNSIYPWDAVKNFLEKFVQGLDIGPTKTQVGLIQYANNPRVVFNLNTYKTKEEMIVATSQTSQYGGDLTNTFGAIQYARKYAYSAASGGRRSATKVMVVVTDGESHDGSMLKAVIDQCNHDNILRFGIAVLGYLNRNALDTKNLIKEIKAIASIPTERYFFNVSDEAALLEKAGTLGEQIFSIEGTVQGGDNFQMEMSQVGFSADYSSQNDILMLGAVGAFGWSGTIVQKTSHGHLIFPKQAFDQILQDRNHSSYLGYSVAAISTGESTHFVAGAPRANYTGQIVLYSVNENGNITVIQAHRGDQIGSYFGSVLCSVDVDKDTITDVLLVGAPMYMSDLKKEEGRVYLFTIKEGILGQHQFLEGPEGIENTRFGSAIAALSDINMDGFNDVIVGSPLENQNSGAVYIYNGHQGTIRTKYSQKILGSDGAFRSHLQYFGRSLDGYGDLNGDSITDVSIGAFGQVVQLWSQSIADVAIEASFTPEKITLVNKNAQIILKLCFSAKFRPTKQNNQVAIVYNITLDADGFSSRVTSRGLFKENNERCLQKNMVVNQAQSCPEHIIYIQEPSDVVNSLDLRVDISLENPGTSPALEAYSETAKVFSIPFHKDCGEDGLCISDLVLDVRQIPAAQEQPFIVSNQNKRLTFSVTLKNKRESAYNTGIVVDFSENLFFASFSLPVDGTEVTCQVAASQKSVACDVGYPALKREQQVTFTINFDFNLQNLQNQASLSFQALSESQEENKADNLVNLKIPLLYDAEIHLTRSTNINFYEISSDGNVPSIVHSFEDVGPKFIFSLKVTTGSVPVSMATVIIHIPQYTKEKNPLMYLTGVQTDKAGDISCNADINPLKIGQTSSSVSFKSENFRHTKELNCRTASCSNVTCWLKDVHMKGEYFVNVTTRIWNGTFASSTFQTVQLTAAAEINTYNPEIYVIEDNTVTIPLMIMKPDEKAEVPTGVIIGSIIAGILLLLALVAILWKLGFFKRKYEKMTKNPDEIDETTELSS
T1 sequence (P05556 21-798): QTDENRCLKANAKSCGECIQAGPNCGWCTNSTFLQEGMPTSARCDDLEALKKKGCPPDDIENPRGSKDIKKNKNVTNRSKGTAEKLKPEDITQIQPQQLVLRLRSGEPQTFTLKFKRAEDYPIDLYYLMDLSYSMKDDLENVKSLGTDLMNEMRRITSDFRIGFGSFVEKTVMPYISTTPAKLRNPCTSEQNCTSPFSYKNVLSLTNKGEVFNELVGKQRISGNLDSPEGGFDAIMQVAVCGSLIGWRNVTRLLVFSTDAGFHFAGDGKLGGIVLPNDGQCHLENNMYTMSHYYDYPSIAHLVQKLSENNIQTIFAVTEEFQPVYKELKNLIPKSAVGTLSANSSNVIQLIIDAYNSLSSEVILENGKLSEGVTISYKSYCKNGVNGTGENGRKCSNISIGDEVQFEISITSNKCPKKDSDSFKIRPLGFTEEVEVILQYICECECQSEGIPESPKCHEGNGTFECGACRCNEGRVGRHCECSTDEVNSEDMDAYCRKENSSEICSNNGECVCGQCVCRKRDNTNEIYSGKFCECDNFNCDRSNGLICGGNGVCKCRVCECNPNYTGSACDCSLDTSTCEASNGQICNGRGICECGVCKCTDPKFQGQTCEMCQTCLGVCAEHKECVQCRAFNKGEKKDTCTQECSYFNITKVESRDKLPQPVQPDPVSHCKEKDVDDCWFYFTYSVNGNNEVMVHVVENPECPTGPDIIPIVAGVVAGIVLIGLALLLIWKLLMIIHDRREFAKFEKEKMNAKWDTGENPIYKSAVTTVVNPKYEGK

“GPAGKDGEAGAQG-NH2 [peptide 430, GPAGKDGEAGAQG]”: the IC50 (read-out: Half-maximal inhibition of Mg++-dependent platelet adhesion to collagen) is 2800 µM. Take KDGEA-NH2 [KDGEA]: where the note is “1 mM Mg++ versus 6 mM Mg++”, the “Inhibitory activity in 1 mM Mg++ as percent of the activity observed in 6 mM Mg++” value turned out to be 80%. Further, under “4 mM peptide, 2 mM Mg++”, the “Inhibition of Mg++-dependent platelet adhesion to collagen” value is 80%.
